System: IFN-a/Jak1 Tyk2
Assay: Co-stimulation assay in lysed whole blood: IFNa (JAK1/TYK2) stimulated STAT1 phosphorylation
Assay type: cell-based
Conditions: Homo sapiens, 20 min, 100 ng/mL IFNa (with 10 ng/mL GM-CSF), pSTAT by flow cytometry
Summary of the method: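 Lysed human whole blood (RBC-lysed, resuspended in cRPMI) pre-incubated with compound 1 h at 37 °C, then stimulated 20 min with IFNa 100 ng/mL plus GM-CSF 10 ng/mL (final). Fixed, permeabilised, stained for pSTAT1 (PE) and pSTAT5 (AF488); flow cytometry read-out, ≥5,000–10,000 cells acquired.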

Row | SMILES | IC50 [nM]
1 | CNc1cc(Nc2cc(F)cc3c2OCCO3)nc2c(NC(=O)N[C@H]3C[C@H]3F)cnn12 [Compound 42, 1-(5-((7-fluoro-2,3-dihydrobenzo[b][1,4]dioxin-5-yl)amino)-7-(methylamino)pyrazolo[1,5-a]pyrimidin-3-yl)-3-((1S,2R)-2-fluorocyclopropyl)urea] | < 1000
2 | C#C[C@H](C)NC(=O)Nc1cnn2c(NC)cc(Nc3cccc4c3OCCO4)nc12 [Compound 123, (S)-1-(but-3-yn-2-yl)-3-(5-((2,3-dihydrobenzo[b][1,4]dioxin-5-yl)amino)-7-(methylamino)pyrazolo[1,5-a]pyrimidin-3-yl)urea] | < 1000
3 | CNc1cc(Nc2cccc3c2OCCO3)nc2c(NC(=O)N[C@@H]3C[C@@H]3C#N)cnn12 [Compound 45, 1-((1R,2S)-2-cyanocyclopropyl)-3-(5-((2,3-dihydrobenzo[b][1,4]dioxin-5-yl)amino)-7-(methylamino)pyrazolo[1,5-a]pyrimidin-3-yl)urea] | < 1000
4 | CNC(=O)Nc1c(F)nn2c(NC)cc(Nc3cccc4c3OCCO4)nc12 [Compound 110, 1-(5-((2,3-dihydrobenzo[b][1,4]dioxin-5-yl)amino)-2-fluoro-7-(methylamino)pyrazolo[1,5-a]pyrimidin-3-yl)-3-methylurea] | ≥ 10000
5 | CNc1cc(Nc2cccc3c2OCCO3)nc2c(NC(=O)NCC3CC3)cnn12 [Compound 103, 1-(cyclopropylmethyl)-3-(5-((2,3-dihydrobenzo[b][1,4]dioxin-5-yl)amino)-7-(methylamino)pyrazolo[1,5-a]pyrimidin-3-yl)urea] | 1000 to 10000
6 | CNc1cc(Nc2cccc3c2OCCO3)nc2c(NC(=O)NCCOC)cnn12 [Compound 112, 1-(5-((2,3-dihydrobenzo[b][1,4]dioxin-5-yl)amino)-7-(methylamino)pyrazolo[1,5-a]pyrimidin-3-yl)-3-(2-methoxyethyl)urea] | < 1000
7 | CNC(=O)Nc1cnn2c(NC)cc(Nc3cccn(-c4ccc(OC)nn4)c3=O)nc12 [Compound 17, 1-(5-((1-(6-methoxypyridazin-3-yl)-2-oxo-1,2-dihydropyridin-3-yl)amino)-7-(methylamino)pyrazolo[1,5-a]pyrimidin-3-yl)-3-methylurea] | 1000 to 10000
8 | [2H]C([2H])([2H])Nc1cc(Nc2cc(F)cc3c2OC([2H])([2H])C([2H])([2H])O3)nc2c(NC(=O)N[C@@H]3C[C@@H]3F)cnn12 [Compound 181, 1-(5-((7-fluoro-2,3-dihydrobenzo[b][1,4]dioxin-5-yl-2,2,3,3-d4)amino)-7-((methyl-d3)amino)pyrazolo[1,5-a]pyrimidin-3-yl)-3-((1R,2S)-2-fluorocyclopropyl)urea] | < 1000
9 | CNC(=O)Nc1cnn2c(NC)cc(-c3cn(C)c4ncccc34)nc12 [Compound 74, 1-methyl-3-(5-(1-methyl-1H-pyrrolo[2,3-b]pyridin-3-yl)-7-(methylamino)pyrazolo[1,5-a]pyrimidin-3-yl)urea] | 1000 to 10000
10 | C#CCNC(=O)Nc1cnn2c(NC)cc(Nc3cc(F)cc4c3OCCO4)nc12 [Compound 111, 1-(5-((7-fluoro-2,3-dihydrobenzo[b][1,4]dioxin-5-yl)amino)-7-(methylamino)pyrazolo[1,5-a]pyrimidin-3-yl)-3-(prop-2-yn-1-yl)urea] | < 1000
11 | CNC(=O)Nc1cnn2c(NC)cc(Nc3cccc4c3OCCN4C)nc12 [Compound 62, 1-methyl-3-(5-((4-methyl-3,4-dihydro-2H-benzo[b][1,4]oxazin-8-yl)amino)-7-(methylamino)pyrazolo[1,5-a]pyrimidin-3-yl)urea] | 1000 to 10000
12 | CNC(=O)Nc1cnn2c(NC)cc(Nc3c(C)cccc3OC)nc12 [Compound 66, 1-(5-((2-methoxy-6-methylphenyl)amino)-7-(methylamino)pyrazolo[1,5-a]pyrimidin-3-yl)-3-methylurea] | 1000 to 10000
13 | CNC(=O)Nc1cnn2c(NC)cc(Nc3cccc4c3OCCCO4)nc12 [Compound 169, 1-(5-((3,4-dihydro-2H-benzo[b][1,4]dioxepin-6-yl)amino)-7-(methylamino)pyrazolo[1,5-a]pyrimidin-3-yl)-3-methylurea] | < 1000
14 | CNc1cc(-c2cn(C3CCOCC3)c3ncccc23)nc2c(NC(=O)NCC#N)cnn12 [Compound 137, 1-(cyanomethyl)-3-(7-(methylamino)-5-(1-(tetrahydro-2H-pyran-4-yl)-1H-pyrrolo[2,3-b]pyridin-3-yl)pyrazolo[1,5-a]pyrimidin-3-yl)urea] | < 1000
15 | CNc1cc(Nc2cccc3c2OCCO3)nc2c(NC(=O)NC3CC(F)C3)cnn12 (stereo not drawn) [Compound 35, 1-(5-((2,3-dihydrobenzo[b][1,4]dioxin-5-yl)amino)-7-(methylamino)pyrazolo[1,5-a]pyrimidin-3-yl)-3-(3-fluorocyclobutyl)urea] | < 1000
16 | CNc1cc(Nc2cc(F)cc3c2OCCO3)nc2c(NC(=O)NCC(N)=O)cnn12 [Compound 118, 2-(3-(5-((7-fluoro-2,3-dihydrobenzo[b][1,4]dioxin-5-yl)amino)-7-(methylamino)pyrazolo[1,5-a]pyrimidin-3-yl)ureido)acetamide] | < 1000
17 | CNC(=O)Nc1cnn2c(NC)cc(Nc3cccc4c3OC(C)(C)O4)nc12 [Compound 116, 1-(5-((2,2-dimethylbenzo[d][1,3]dioxol-4-yl)amino)-7-(methylamino)pyrazolo[1,5-a]pyrimidin-3-yl)-3-methylurea] | 1000 to 10000
18 | CNc1cc(Nc2cccc3c2OCCO3)nc2c(NC(=O)NCC#N)cnn12 [Compound 102, 1-(cyanomethyl)-3-(5-((2,3-dihydrobenzo[b][1,4]dioxin-5-yl)amino)-7-(methylamino)pyrazolo[1,5-a]pyrimidin-3-yl)urea] | < 1000
19 | CNc1cc(Nc2cc(F)cc3c2OCCO3)nc2c(NC(N)=O)cnn12 [Compound 124, 1-(5-((7-fluoro-2,3-dihydrobenzo[b][1,4]dioxin-5-yl)amino)-7-(methylamino)pyrazolo[1,5-a]pyrimidin-3-yl)urea] | < 1000
20 | CNc1cc(Nc2cccc3c2OCCO3)nc2c(NC(=O)NC(C)C)cnn12 [Compound 148, 1-(5-((2,3-dihydrobenzo[b][1,4]dioxin-5-yl)amino)-7-(methylamino)pyrazolo[1,5-a]pyrimidin-3-yl)-3-isopropylurea] | < 1000
21 | CNc1cc(Nc2c(F)ccc3c2OCCO3)nc2c(NC(=O)N[C@@H]3C[C@@H]3F)cnn12 [Compound 175, 1-(5-((6-fluoro-2,3-dihydrobenzo[b][1,4]dioxin-5-yl)amino)-7-(methylamino)pyrazolo[1,5-a]pyrimidin-3-yl)-3-((1R,2S)-2-fluorocyclopropyl)urea] | ≥ 10000
22 | CNC(=O)Nc1cnn2c(NC)cc(Nc3cccc4nccnc34)nc12 [Compound 166, 1-methyl-3-(7-(methylamino)-5-(quinoxalin-5-ylamino)pyrazolo[1,5-a]pyrimidin-3-yl)urea] | < 1000
23 | CNc1cc(-c2cn(C3CCOCC3)c3ncccc23)nc2c(NC(=O)N[C@H]3CC[C@H]3O)cnn12 [Compound 56, 1-((1S,2R)-2-hydroxycyclobutyl)-3-(7-(methylamino)-5-(1-(tetrahydro-2H-pyran-4-yl)-1H-pyrrolo[2,3-b]pyridin-3-yl)pyrazolo[1,5-a]pyrimidin-3-yl)urea] | ≥ 10000

Same assay, conditions: lysed human whole blood; 100 ng/mL IFNa (with 10 ng/mL GM-CSF), 20 minutes; pSTAT by flow cytometry

Row | SMILES | IC50 [nM]
24 | CNc1cc(Nc2c(F)ccc3c2OCCO3)nc2c(NC(=O)NCC#N)cnn12 [Compound 174, 1-(cyanomethyl)-3-(5-((6-fluoro-2,3-dihydrobenzo[b][1,4]dioxin-5-yl)amino)-7-(methylamino)pyrazolo[1,5-a]pyrimidin-3-yl)urea] | ≥ 10000
